# Calls of active or inactive are those of the source. The rule behind the calls is not given here.
# Experiments:
# MDA-MB-453 = assay: Antiproliferative activity against human MDA-MB-453 cells assessed as inhibition of cell proliferation incubated for 72 hrs by MTT assay; type: functional, cell-based; conditions: MDA-MB-453, 72 h
# MDA-MB-231 [1] = assay: Induction of apoptosis in human MDA-MB-231 cells assessed as late apoptotic cells at 4 uM incubated for 72 hrs by Annexin V-FITC/PI staining based flow cytometry analysis (reference value: 0.11%); type: functional
# MDA-MB-231 [2] = assay: Induction of apoptosis in human MDA-MB-231 cells assessed as dead cells at 4 uM incubated for 72 hrs by Annexin V-FITC/PI staining based flow cytometry analysis (reference value: 0.23%); type: functional
# MDA-MB-231 [3] = assay: Induction of apoptosis in human MDA-MB-231 cells assessed as live cells at 4 uM incubated for 72 hrs by Annexin V-FITC/PI staining based flow cytometry analysis (reference value: 97.51%); type: functional
# MDA-MB-157 = assay: Antiproliferative activity against human MDA-MB-157 cells assessed as inhibition of cell proliferation incubated for 72 hrs by MTT assay; type: functional, cell-based; conditions: MDA-MB-157, 72 h
# MDA-MB-231 [4] = assay: Antiproliferative activity against human MDA-MB-231 cells assessed as inhibition of cell proliferation incubated for 72 hrs by MTT assay; type: functional, cell-based; conditions: MDA-MB-231, 72 h
# MDA-MB-231 [5] = assay: Induction of apoptosis in human MDA-MB-231 cells assessed as early apoptotic cells at 4 uM incubated for 72 hrs by Annexin V-FITC/PI staining based flow cytometry analysis (reference value: 2.16%); type: functional
# [6] = Cytotoxicity against human MCF-10A cells assessed as inhibition of cell proliferation incubated for 72 hrs by MTT assay; type: toxicity, cell-based
# MDA-MB-231 [7] = assay: Effect on FAK protein expression in human MDA-MB-231 cells at 1 to 4 uM incubated for 72 hrs by Western blot analysis; type: functional, cell-based; conditions: dose 1-4 µM
# MDA-MB-231 [8] = assay: Induction of apoptosis in human MDA-MB-231 cells assessed as late apoptotic cells at 2 uM incubated for 72 hrs by Annexin V-FITC/PI staining based flow cytometry analysis (reference value: 0.11%); type: functional
# Focal adhesion kinase 1 [9] = molecular target: T1, Focal adhesion kinase 1 (Homo sapiens, UniProt Q05397); assay: Inhibition of FAK-mediated signaling pathway in human MDA-MB-231 cells assessed as reduction in MMP-2 protein level incubated for 72 hrs by Western blot analysis; type: cell-based; conditions: dose 1-4 µM
# Target sequence in this assay (Q05397 2-1052 limits assumed): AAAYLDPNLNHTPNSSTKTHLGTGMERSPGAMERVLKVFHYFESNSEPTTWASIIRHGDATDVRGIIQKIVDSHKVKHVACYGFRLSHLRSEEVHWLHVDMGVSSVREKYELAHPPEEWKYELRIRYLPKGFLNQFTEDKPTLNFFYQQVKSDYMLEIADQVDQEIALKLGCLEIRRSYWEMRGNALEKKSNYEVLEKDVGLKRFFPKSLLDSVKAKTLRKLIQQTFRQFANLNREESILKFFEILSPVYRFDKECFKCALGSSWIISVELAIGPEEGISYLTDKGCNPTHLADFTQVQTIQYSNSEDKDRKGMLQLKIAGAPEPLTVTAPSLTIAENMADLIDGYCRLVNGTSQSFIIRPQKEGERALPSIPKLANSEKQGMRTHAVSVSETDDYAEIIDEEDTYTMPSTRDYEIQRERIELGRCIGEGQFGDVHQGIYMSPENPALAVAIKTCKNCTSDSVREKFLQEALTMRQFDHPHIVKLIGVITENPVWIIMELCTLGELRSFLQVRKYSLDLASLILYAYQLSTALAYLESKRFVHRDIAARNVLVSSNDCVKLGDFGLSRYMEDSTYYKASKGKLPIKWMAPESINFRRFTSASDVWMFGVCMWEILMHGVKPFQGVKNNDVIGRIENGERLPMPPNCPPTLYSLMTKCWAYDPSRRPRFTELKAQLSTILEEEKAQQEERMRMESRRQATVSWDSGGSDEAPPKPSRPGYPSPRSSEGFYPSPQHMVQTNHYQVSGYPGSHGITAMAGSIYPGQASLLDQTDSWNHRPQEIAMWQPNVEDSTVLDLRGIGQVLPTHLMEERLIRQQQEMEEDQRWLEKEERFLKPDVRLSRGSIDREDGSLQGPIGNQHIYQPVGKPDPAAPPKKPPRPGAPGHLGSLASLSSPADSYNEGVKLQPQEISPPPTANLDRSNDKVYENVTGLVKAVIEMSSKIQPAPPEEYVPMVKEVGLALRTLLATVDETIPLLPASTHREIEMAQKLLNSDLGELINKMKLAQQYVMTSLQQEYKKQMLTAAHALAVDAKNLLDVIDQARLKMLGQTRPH
# MDA-MB-231 [10] = assay: Inhibition of stress fibers formation in human MDA-MB-231 cells assessed as reduction in number of stress fibers at 4 uM incubated for 72 hrs by quantitative analysis; type: functional, cell-based
# MDA-MB-231 [11] = assay: Induction of apoptosis in human MDA-MB-231 cells assessed as early apoptotic cells at 2 uM incubated for 72 hrs by Annexin V-FITC/PI staining based flow cytometry analysis (reference value: 2.16%); type: functional
# MDA-MB-231 [12] = assay: Inhibition of stress fibers formation in human MDA-MB-231 cells assessed as reduction in total area at 4 uM incubated for 72 hrs; type: functional, cell-based
# MDA-MB-231 [13] = assay: Antitumor activity against human MDA-MB-231 cells xenografted in po dosed BALB/c nude mouse assessed as reduction in number of lung tumor nodules administered once daily for 30 days; type: functional, organism-based; conditions: dose 15-30 mg/kg, time 30.0 day
# [14] = Toxicity in BALB/c nude mouse xenografted with human MDA-MB-231 cells assessed as animal death at 50 to 30 mg/kg, po administered once daily for 30 days; type: organism-based; conditions: in vivo, 720 h, dose 50-30 mg/kg, time 30 day
# MDA-MB-231 [15] = assay: Inhibition of focal adhesion formation in human MDA-MB-231 cells assessed as reduction in number of focal adhesions at 4 uM incubated for 72 hrs by quantitative analysis; type: functional, cell-based
# MDA-MB-231 [16] = assay: Induction of apoptosis in human MDA-MB-231 cells assessed as early apoptotic cells at 1 uM incubated for 72 hrs by Annexin V-FITC/PI staining based flow cytometry analysis (reference value: 2.16%); type: functional
# [17] = Toxicity in BALB/c nude mouse xenografted with human MDA-MB-231 cells assessed as reduction in body weight at 50 to 30 mg/kg, po administered once daily for 30 days and measured every 3 days; type: organism-based; conditions: in vivo, 720 h, dose 50-30 mg/kg, time 30 day
# MDA-MB-231 [18] = assay: Induction of apoptosis in human MDA-MB-231 cells assessed as dead cells at 1 uM incubated for 72 hrs by Annexin V-FITC/PI staining based flow cytometry analysis (reference value: 0.23%); type: functional
# MDA-MB-231 [19] = assay: Antiproliferative activity against human MDA-MB-231 cells assessed as inhibition of cell proliferation at 1 uM pretreated with carboxy-PTIO at 5 to 20 uM for 1 hr followed by compound addition and further incubated for 72 hrs by MTT assay; type: functional, cell-based
# MDA-MB-231 [20] = assay: Inhibition of focal adhesion formation in human MDA-MB-231 cells assessed as reduction in anti-vinculin antibodies fluorescence signal at 4 uM pretreated with carboxy-PTIO for 1 hr followed by compound addition and further incubated for 72 hrs by confocal microscopic analysis; type: functional, cell-based
# MDA-MB-231 [21] = assay: Antiproliferative activity against human MDA-MB-231 cells assessed as inhibition of cell proliferation at 1 uM incubated for 72 hrs by MTT assay; type: functional, cell-based
# Focal adhesion kinase 1 [22] = molecular target: T1, Focal adhesion kinase 1; assay: Inhibition of FAK-mediated signaling pathway in human MDA-MB-231 cells assessed as reduction in MMP-2 protein level at 4 uM pretreated with carboxy-PTIO followed by compound addition and further incubated for 72 hrs by Western blot analysis; type: cell-based
# Target sequence in this assay (Q05397 2-1052 limits assumed): as above
# MDA-MB-231 [23] = assay: Induction of apoptosis in human MDA-MB-231 cells assessed as dead cells at 2 uM incubated for 72 hrs by Annexin V-FITC/PI staining based flow cytometry analysis (reference value: 0.23%); type: functional
# Focal adhesion kinase 1 [24] = molecular target: T1, Focal adhesion kinase 1; assay: Inhibition of FAK autophosphorylation at Y397 residue in human MDA-MB-231 cells at 4 uM pretreated with carboxy-PTIO followed by compound addition and further incubated for 72 hrs by Western blot analysis; type: cell-based
# Target sequence in this assay (Q05397 2-1052 limits assumed): as above
# MDA-MB-231 [25] = assay: Inhibition of stress fibers formation in human MDA-MB-231 cells assessed as reduction in FITC-conjugated phalloidin fluorescence signal at 4 uM pretreated with carboxy-PTIO for 1 hr followed by compound addition and further incubated for 72 hrs by confocal microscopic analysis; type: functional, cell-based
# MDA-MB-231 [26] = assay: Inhibition of stress fibers formation in human MDA-MB-231 cells assessed as reduction in FITC-conjugated phalloidin fluorescence signal at 4 uM incubated for 72 hrs by confocal microscopic analysis; type: functional, cell-based
# MDA-MB-231 [27] = assay: Induction of apoptosis in human MDA-MB-231 cells assessed as live cells at 1 uM incubated for 72 hrs by Annexin V-FITC/PI staining based flow cytometry analysis (reference value: 97.51%); type: functional
# MDA-MB-231 [28] = assay: Antiproliferative activity against human MDA-MB-231 cells assessed as inhibition of cell proliferation at 5 uM incubated for 72 hrs by MTT assay relative to control; type: functional
# Focal adhesion kinase 1 [29] = molecular target: T1, Focal adhesion kinase 1; assay: Inhibition of FAK-mediated signaling pathway in human MDA-MB-231 cells assessed as reduction in phosphorylated AKT protein level at 4 uM pretreated with carboxy-PTIO followed by compound addition and further incubated for 72 hrs by Western blot analysis; type: cell-based
# Target sequence in this assay (Q05397 2-1052 limits assumed): as above
# [30] = Selectivity index, ratio of IC50 for human MCF-10A cells to IC50 for human MDA-MB-231 cells; type: toxicity; conditions: MCF-10A cells versus MDA-MB-231 cells, read-out: Ratio IC50
# Focal adhesion kinase 1 [31] = molecular target: T1, Focal adhesion kinase 1; assay: Inhibition of FAK (unknown origin)
# Target sequence in this assay (Q05397 whole entry): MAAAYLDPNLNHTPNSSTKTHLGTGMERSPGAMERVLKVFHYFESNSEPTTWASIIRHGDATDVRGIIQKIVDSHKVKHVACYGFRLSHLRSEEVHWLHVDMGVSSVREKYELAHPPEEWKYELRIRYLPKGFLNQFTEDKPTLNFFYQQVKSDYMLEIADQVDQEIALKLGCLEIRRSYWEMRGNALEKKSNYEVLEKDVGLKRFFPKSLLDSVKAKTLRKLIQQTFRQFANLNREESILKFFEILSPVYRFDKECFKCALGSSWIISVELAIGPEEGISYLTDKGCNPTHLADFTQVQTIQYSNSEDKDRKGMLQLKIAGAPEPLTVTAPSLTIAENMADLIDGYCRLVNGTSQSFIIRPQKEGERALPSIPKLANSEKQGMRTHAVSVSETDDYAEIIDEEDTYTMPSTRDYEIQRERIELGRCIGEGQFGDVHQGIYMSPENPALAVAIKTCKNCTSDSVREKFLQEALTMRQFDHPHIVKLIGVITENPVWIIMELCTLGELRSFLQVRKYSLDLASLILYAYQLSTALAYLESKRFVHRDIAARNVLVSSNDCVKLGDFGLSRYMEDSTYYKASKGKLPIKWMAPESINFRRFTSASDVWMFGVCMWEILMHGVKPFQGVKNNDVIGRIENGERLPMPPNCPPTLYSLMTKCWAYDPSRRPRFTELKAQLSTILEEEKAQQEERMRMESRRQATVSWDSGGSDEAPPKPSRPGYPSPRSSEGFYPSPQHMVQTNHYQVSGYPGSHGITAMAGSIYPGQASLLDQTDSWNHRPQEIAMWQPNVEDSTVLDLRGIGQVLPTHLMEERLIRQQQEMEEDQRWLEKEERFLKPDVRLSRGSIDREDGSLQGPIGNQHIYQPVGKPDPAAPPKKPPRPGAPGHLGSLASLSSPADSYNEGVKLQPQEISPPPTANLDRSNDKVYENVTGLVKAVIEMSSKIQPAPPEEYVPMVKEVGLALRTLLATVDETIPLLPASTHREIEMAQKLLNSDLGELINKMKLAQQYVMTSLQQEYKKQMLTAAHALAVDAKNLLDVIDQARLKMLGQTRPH
# MDA-MB-231 [32] = assay: Inhibition of cell invasion in human MDA-MB-231 cells assessed as reduction in number of invasive cells incubated for 48 hrs by crystal violet staining based inverted microscopic analysis; type: functional; conditions: dose 1-4 µM
# Focal adhesion kinase 1 [33] = molecular target: T1, Focal adhesion kinase 1; assay: Inhibition of FAK-mediated signaling pathway in human MDA-MB-231 cells assessed as reduction in MMP-9 protein level incubated for 72 hrs by Western blot analysis; type: cell-based; conditions: dose 1-4 µM
# Target sequence in this assay (Q05397 2-1052 limits assumed): as the sequence (Q05397 2-1052 limits assumed) above
# MDA-MB-231 [34] = assay: Inhibition of focal adhesion formation in human MDA-MB-231 cells assessed as reduction in anti-vinculin antibodies fluorescence signal at 4 uM incubated for 72 hrs by confocal microscopic analysis; type: functional, cell-based
# MDA-MB-231 [35] = assay: Induction of NO production in human MDA-MB-231 cells incubated for 72 hrs by DAF-FM-DA dye based flow cytometry analysis; type: functional, cell-based; conditions: dose 1-4 µM
# MDA-MB-231 [36] = assay: Induction of apoptosis in human MDA-MB-231 cells assessed as late apoptotic cells at 1 uM incubated for 72 hrs by Annexin V-FITC/PI staining based flow cytometry analysis (reference value: 0.11%); type: functional
# Focal adhesion kinase 1 [37] = molecular target: T1, Focal adhesion kinase 1; assay: Inhibition of FAK-mediated signaling pathway in human MDA-MB-231 cells assessed as reduction in phosphorylated AKT protein level incubated for 72 hrs by Western blot analysis; type: cell-based; conditions: dose 1-4 µM
# Target sequence in this assay (Q05397 2-1052 limits assumed): as above
# Focal adhesion kinase 1 [38] = molecular target: T1, Focal adhesion kinase 1; assay: Inhibition of FAK autophosphorylation at Y397 residue in human MDA-MB-231 cells incubated for 72 hrs by Western blot analysis; type: cell-based; conditions: dose 1-4 µM
# MDA-MB-231 [39] = assay: Potency index, ratio of TAE226 IC50 to test compound IC50 for antiproliferative activity against human MDA-MB-231 cells assessed as inhibition of cell proliferation incubated for 72 hrs by MTT assay; type: functional
# Focal adhesion kinase 1 [40] = molecular target: T1, Focal adhesion kinase 1; assay: Inhibition of FAK-mediated signaling pathway in human MDA-MB-231 cells assessed as reduction in MMP-9 protein level at 4 uM pretreated with carboxy-PTIO followed by compound addition and further incubated for 72 hrs by Western blot analysis; type: cell-based
# MDA-MB-231 [41] = assay: Inhibition of focal adhesion formation in human MDA-MB-231 cells assessed as reduction in total area at 4 uM incubated for 72 hrs; type: functional, cell-based
# MDA-MB-231 [42] = assay: Induction of apoptosis in human MDA-MB-231 cells assessed as live cells at 2 uM incubated for 72 hrs by Annexin V-FITC/PI staining based flow cytometry analysis (reference value: 97.51%); type: functional
# MDA-MB-231 [43] = assay: Antimigratory activity in human MDA-MB-231 cells incubated for 48 hrs by scratch wound healing assay; type: functional, cell-based; conditions: dose 1-4 µM
structure (smiles),measurement,setting,value
CNC(=O)c1ccccc1Nc1nc(Nc2ccc(N3CCOCC3)cc2OC)ncc1Cl,IC50,MDA-MB-453,1220 nM
same,Activity,MDA-MB-231 [1],1.31%
same,Activity,MDA-MB-231 [2],0.11%
same,Activity,MDA-MB-231 [3],57.79%
same,IC50,MDA-MB-157,912 nM
same,IC50,MDA-MB-231 [4],1170 nM
same,Activity,MDA-MB-231 [5],40.78%
same,IC50 at 72 h,[6],6.47 µM
CNC(=O)c1ccccc1Nc1nc(Nc2ccc(CC(=O)OCCCCCCCCOc3no[n+]([O-])c3S(=O)(=O)c3ccccc3)cc2)ncc1Cl,Activity,MDA-MB-231 [7],inactive
same,Activity,MDA-MB-231 [8],13.83%
same,inhibition,Focal adhesion kinase 1 [9],Dose-Dependent Effect
same,inhibition,MDA-MB-231 [10],Active
same,Activity,MDA-MB-231 [11],9.88%
same,inhibition,MDA-MB-231 [12],Active
same,Activity,MDA-MB-231 [13],Dose-Dependent Effect
same,Activity,[14],Non-Toxic
same,IC50,MDA-MB-453,159 nM
same,inhibition,MDA-MB-231 [15],Active
same,Activity,MDA-MB-231 [16],12.6%
same,Activity,[17],Non-Toxic
same,Activity,MDA-MB-231 [18],3.94%
same,Activity,MDA-MB-231 [19],inactive
same,inhibition,MDA-MB-231 [20],inactive
same,Activity,MDA-MB-231 [21],Active
same,inhibition,Focal adhesion kinase 1 [22],inactive
same,Activity,MDA-MB-231 [23],1.38%
same,inhibition,Focal adhesion kinase 1 [24],inactive
same,Activity,MDA-MB-231 [1],13.94%
same,inhibition,MDA-MB-231 [25],inactive
same,Activity,MDA-MB-231 [2],3.34%
same,inhibition,MDA-MB-231 [26],Active
same,Activity,MDA-MB-231 [27],77.01%
same,inhibition at 5 µM,MDA-MB-231 [28],> 92%
same,inhibition,Focal adhesion kinase 1 [29],inactive
same,Activity,MDA-MB-231 [3],26%
same,selectivity ratio,[30],19.1
same,IC50,Focal adhesion kinase 1 [31],27.4 nM
same,inhibition,MDA-MB-231 [32],Dose-Dependent Effect
same,inhibition,Focal adhesion kinase 1 [33],Dose-Dependent Effect
same,inhibition,MDA-MB-231 [34],Active
same,IC50,MDA-MB-157,167 nM
same,Activity,MDA-MB-231 [35],Dose-Dependent Effect
same,IC50,MDA-MB-231 [4],126 nM
same,Activity,MDA-MB-231 [36],6.46%
same,inhibition,Focal adhesion kinase 1 [37],Dose-Dependent Effect
same,inhibition,Focal adhesion kinase 1 [38],Dose-Dependent Effect
same,Ratio IC50,MDA-MB-231 [39],~10
same,inhibition,Focal adhesion kinase 1 [40],inactive
same,Activity,MDA-MB-231 [5],56.72%
same,inhibition,MDA-MB-231 [41],Active
same,Activity,MDA-MB-231 [42],74.91%
same,IC50 at 72 h,[6],2.4 µM
same,Activity,MDA-MB-231 [43],Dose-Dependent Effect
